# Literature values in the CATMoS acute toxicity set (Mansouri et al. 2021).
# Values joined by “and” are separate entries in the source; they are usually repeats but may differ in a detail not shown here. Identical values can stand only once.
# Assay: rat acute oral toxicity
# Details: in vivo
row,Compound,LD50
1,CCN(CCCCOC(=O)c1ccc(OC)c(OC)c1)C1CCc2cc(OC)c(OC)cc2C1 (stereo unspecified),1540 mg/kg
2,CCCCC(CC)COC(=O)COc1cc(Cl)c(Cl)cc1Cl (stereo unspecified),500 mg/kg
3,C=CCOc1ccc([C@H]2c3ccc(OC)cc3OC(C)(C)[C@@H]2c2ccccc2)cc1,500 mg/kg
4,CC(=O)O[C@H]1C[C@@H]2CC[C@@H]3[C@H](CC[C@@]4(C)[C@H]3C[C@H]([N+]3(C)CCCCC3)[C@@H]4OC(C)=O)[C@@]2(C)C[C@@H]1[N+]1(C)CCCCC1,202 mg/kg
5,CC(CN)CCCN (stereo unspecified),1690 mg/kg
6,CC(C)(C)NCC(O)c1ccc(O)c(CO)n1 (stereo unspecified),2800 mg/kg
7,CCCC(=O)Nc1c(I)cc(I)c(CC(CC)C(=O)O)c1I (stereo unspecified),6500 mg/kg
8,Cc1[nH]c(=O)c(C#N)cc1-c1ccc2nccn2c1,7800 mg/kg
9,CCn1c2ccccc2c2cc(N)ccc21,144 mg/kg and 234 mg/kg
10,CC=Cc1cc(OC)c(OC)cc1OC,1010 mg/kg
11,O=C1OC(=O)c2ccc(Cl)c3cccc1c23,3460 mg/kg
12,ClCCO[SiH](OCCCl)OCCCl,190 mg/kg
13,Cc1c(-c2ccccc2)oc2c(C(=O)OC(C)(C)CN3CCCCC3)cccc2c1=O,1980 mg/kg
14,CNC(=O)Oc1ccc(CC#N)cc1,511 mg/kg
15,O=C(c1cc(O)c(O)c(O)c1)c1ccc(O)c(O)c1O,1420 mg/kg
16,O=C(OOC(=O)c1ccccc1)c1ccccc1,7710 mg/kg
17,Cc1ccc(N)cc1O,3600 mg/kg
18,Clc1cc(Cl)c(Cl)c(Cl)c1,1730 mg/kg
19,C=CCOC1=NS(=O)(=O)c2ccccc21,2030 mg/kg
20,FC(F)C(F)(F)OCC(Cn1cncn1)c1ccc(Cl)cc1Cl (stereo unspecified),1030 mg/kg
21,CCCn1c2ccccc2c2cc(N)ccc21,423 mg/kg
22,Nc1nccs1,480 mg/kg

row,Compound,LD50
1,COC(=O)CNC[P@](=O)(O)Oc1ccccc1,4100 mg/kg
2,CCCC=C1OC(=O)c2ccccc21,1850 mg/kg
3,CCOC(=S)C=Cc1cc(OC)c(OC)c(OC)c1,1000 mg/kg
4,S=P(N1CC1)(N1CC1)N1CC1,23 mg/kg
5,Cc1c[nH]cn1,751 mg/kg
6,CCCN(CCC)S(=O)(=O)c1ccc(C(=O)O)cc1,1600 mg/kg
7,OC[C@H]1CO[C@@H](Cc2ccccc2)O1,1720 mg/kg
8,O=[N+]([O-])c1cccc2ccccc12,150 mg/kg
9,O=NN1CC=CCO1,900 mg/kg
10,COC(F)(F)C(Cl)Cl,3600 mg/kg
11,C(=Nc1ccccc1)Nc1ccccc1,1900 mg/kg
12,CCN(CC)S(=O)(=O)c1ccc(OP(=S)(OC)OC)cc1Cl,50 mg/kg
13,CC(C)(N)CO,2900 mg/kg
14,O=S1OC[C@@H]2[C@H](CO1)[C@]1(Cl)C(Cl)=C(Cl)[C@@]2(Cl)C1(Cl)Cl (stereo partly specified),76 mg/kg
15,COC(=O)[C@H]1[C@H]2C[C@@H]3c4[nH]c5cc(OC)ccc5c4CCN3C[C@H]2C[C@@H](OC(=O)c2cc(OC)c(OC)c(OC)c2)[C@@H]1OC,420 mg/kg
16,C[N+](C)(C)CCO,6640 mg/kg
17,CC(C)Oc1ccccc1N,840 mg/kg
18,ClC1=C(Cl)C2(Cl)C3C(Br)C=CC3C1(Cl)C2(Cl)Cl (stereo unspecified),1040 mg/kg
19,NCC1CC2CCC1C2 (stereo unspecified),1410 mg/kg
20,Cc1cc(C2CCCCC2)n(O)c(=O)c1,2350 mg/kg
21,C#CCN1C(=O)CN=C(c2ccccc2)c2cc([N+](=O)[O-])ccc21,876 mg/kg
22,CCN(CC)C(=O)CCC(C)=O,4760 mg/kg

row,Compound,LD50
1,CCCC=C(CC)[N+](=O)[O-],620 mg/kg
2,CN(C)CCCN1c2ccccc2CCc2ccc(Cl)cc21,914 mg/kg and 613 mg/kg
3,Cc1cc(C)cc(OCC2CNC(=O)O2)c1 (stereo unspecified),775 mg/kg
4,C=CCON/C(CCC)=C1\C(=O)CC(C)(C)C(C(=O)OC)C1=O (stereo unspecified),2260 mg/kg
5,COc1cc(C)nc(-n2nc(C)cc2OC)n1,445 mg/kg
6,CC(C)NCC(O)COc1cccc2[nH]ccc12 (stereo unspecified),263 mg/kg
7,CCCCB(CCCC)CCCC,1120 mg/kg
8,CN1CC[C@]23CCCC[C@H]2[C@H]1Cc1ccc(O)cc13,150 mg/kg
9,Cc1c(N(C)C)c(=O)n(-c2ccccc2)n1C,285 mg/kg
10,Cc1nc([N+](=O)[O-])cn1-c1ccc([N+](=O)[O-])cc1,4810 mg/kg
11,CCCCC(O)CC (stereo unspecified),1870 mg/kg
12,CC(=O)CCc1ccc(OC(C)=O)cc1,3040 mg/kg
13,NC1(C(=O)O)CCCC1,290 mg/kg and 260 mg/kg
14,COP(=O)(OC)OC(Cl)C(Cl)(Cl)Cl (stereo unspecified),14 mg/kg
15,CCOP(=S)(OCC)SCSc1cc(Cl)ccc1Cl,44 mg/kg
16,CCOC(=O)C1=C(C)NC(C)=C(C(=O)OCCN2CCCCC2)C1c1cccc([N+](=O)[O-])c1 (stereo unspecified),363 mg/kg
17,CC(C)C1NC(=O)c2ccccc2O1 (stereo unspecified),1850 mg/kg
18,CCOC(=O)C(CC)(C(=O)NCCN(CC)CC)c1ccccc1 (stereo unspecified),610 mg/kg
19,Cc1ccccc1C#N,3200 mg/kg
20,Cc1ccn(C(N)=O)n1,830 mg/kg and 1100 mg/kg
21,OC1(c2ccc(Cl)cc2)CCNCC1,465 mg/kg
22,CC1CCCc2n1c(=O)c(C(N)=O)c[n+]2C (stereo unspecified),600 mg/kg

row,Compound,LD50
1,CN(C)c1ccc(N)c2ccccc12,400 mg/kg
2,Fc1cc2[nH]c(C(F)(F)F)nc2cc1Cl,8.66 mg/kg
3,CCC1COC(Cn2cncn2)(c2ccc(Cl)cc2Cl)O1 (stereo unspecified),1340 mg/kg
4,CC(C)(C)C1CCC(NCCC(c2ccccc2)c2ccccc2)CC1 (stereo unspecified),2550 mg/kg
5,Cc1ccn(C(=O)NCCCCNC(=O)n2ccc(C)n2)n1,4600 mg/kg
6,CCn1c2c(c3cc(N)ccc31)CCCC2,198 mg/kg
7,O=C(CN1CCCCC1)N1CCOc2ccccc21,200 mg/kg
8,CCCOc1cc(C=CC(=S)OCC)ccc1OC,970 mg/kg
9,C=CCOC(=O)CC1CCCCC1,900 mg/kg
10,ClCc1cccc2ccccc12,890 mg/kg
11,CCCCC(CC)CO[Si](O)(O)O (stereo unspecified),19700 mg/kg
12,CCOC(=S)SSSC(=S)OCC,235 mg/kg
13,CCN(CCCOS(C)(=O)=O)CCCOS(C)(=O)=O,375 mg/kg
14,O=C(O)c1cc([N+](=O)[O-])cc([N+](=O)[O-])c1O,860 mg/kg
15,Nc1ccc(Br)cc1,456 mg/kg
16,CCCCC(CC)COC(N)=O (stereo unspecified),3150 mg/kg
17,C=CCc1ccccc1,5540 mg/kg
18,CCc1ccc(C)cc1O,530 mg/kg
19,COC1OC(CNC(=O)N(CCCl)N=O)C(O)C(O)C1O (stereo unspecified),46.4 mg/kg
20,CCC1OCC(=NOC(=O)NC)S1 (stereo unspecified),60 mg/kg
21,C[C@H]1[C@H](c2ccccc2)OCCN1C,455 mg/kg
22,C=CSC=C,170 mg/kg

row,Compound,LD50
1,CCCCCCCCc1ccc(C)cc1O,4000 mg/kg
2,CCCC(=O)c1ccc2c(c1)N(CCCN(C)C)c1ccccc1S2,300 mg/kg
3,CCCN(CCC)C(=O)C(CCC(=O)O)NC(=O)c1ccccc1 (stereo unspecified),20000 mg/kg and 8200 mg/kg
4,Cc1[nH]nc(Cl)c1[N+](=O)[O-],350 mg/kg
5,CCCCNC(=O)NS(=O)(=O)c1ccc(N)cc1,4400 mg/kg
6,CC(C)(CO)NCC(O)c1ccccc1 (stereo unspecified),2080 mg/kg
7,NCCC[Si]12OCCN(CCO1)CCO2,5800 mg/kg
8,O=C(O)[C@@H]1CC[C@H](C(=O)O)C1,3250 mg/kg
9,CC1(C)C(C=C(Br)Br)C1C(=O)OC(C#N)c1cccc(Oc2ccccc2)c1 (stereo unspecified),80 mg/kg
10,CC(O)CF (stereo unspecified),3260 mg/kg
11,C=CCC#N,115 mg/kg
12,O=C1C2C3C=C(C(O)(c4ccccc4)c4ccccn4)C(C3=C(c3ccccc3)c3ccccn3)C2C(=O)N1Cc1ccccn1 (stereo unspecified),5.2 mg/kg
13,CCCCC(CC)COC(C[n+]1ccccc1)c1ccc(Cl)c(Cl)c1 (stereo unspecified),250 mg/kg
14,O=[N+]([O-])c1cc([N+](=O)[O-])c(Nc2c(Br)cc(Br)cc2Br)c(C(F)(F)F)c1,4.43 mg/kg
15,CC(C)(C)c1ccc2nc(C(F)(F)F)[nH]c2c1,35 mg/kg
16,CC(=O)CCC1C(=O)N(c2ccccc2)N(c2ccccc2)C1=O,720 mg/kg
17,CCS(=O)CCOP(=S)(OC)OC (stereo unspecified),600 mg/kg
18,COP(=O)(OC)ON1C(=O)c2cccc3cccc(c23)C1=O,70 mg/kg
